Source: US20090131313A1, “LKKTET AND/OR LKKTNT PEPTIDE COMPOSITIONS AND METHODS FOR TREATING OR PREVENTING TISSUE DETERIORATION, INJURY OR DAMAGE” (REGENERX BIOPHARMACEUTICALS, INC., priority 2005, published 2009)

How the values were obtained:
[1] = tested on: Human corneal epithelial cells; assay: annexin-based cell death (apoptosis) assay
Method: (§1) Human corneal epithelial cells at approximately 80% confluence were treated with 0%, 0.001%, 0.01%, or 0.1% BAK for 15 minutes. After 3 and 24 hours of recovery in culture medium, cell proliferation was measured using a calorimetric BrdU incorporation assay. Apoptosis was measured using a calorimetric annexin-based cell death assay. […] To further assess the ability of Tb4 to prevent apoptosis, corneal epithelial cells were treated with 0.01% BAK±Tβ4 over a 5 day time course.

[2] = tested on: Human corneal epithelial cells; assay: BrdU incorporation cell proliferation assay; assay type: cell-based; details: 1 mcg/ml Tβ4, 3 and 24 hour time points
Method: as §1

## benzalkonium chloride [BAK, reference compound]
[1]; 0.001%, 0.01% or 0.1% BAK for 15 minutes, 3 and 24 hours recovery
  corneal epithelial cell apoptosis compared to control: increased

## Thymosin beta 4 (SDKPDMAEIEKFDKSKLKKTETQEKNPLPSKETIEQEKQAGES; Thymosin beta-4; UniProt P62328 2-44, looked up) [Tβ4]
[1]; 1 mcg/ml Tβ4, BAK-treated cells, 3 and 24 hour time points
  apoptosis of BAK-treated cells in the presence of Tβ4: not inhibited
[1]; Tβ4-treated cells, 5 days in culture
  apoptosis compared to cells cultured in medium alone: decreased apoptosis
[2]
  cell proliferation of BAK-treated cells in the presence of Tβ4: not promoted
